# Test results from ChEMBL document CHEMBL1150557, “Molecular design of novel PGI2 agonists without PG skeleton. I” (Bioorg Med Chem Lett, 1995).
# pIC50: −log10 of the molar value.
# Target: Prostacyclin receptor (Homo sapiens, UniProt P43119)
# Assay: Prostaglandin I2 receptor binding by displacement of [3H]iloprost from human platelets
# Chain of Prostacyclin receptor (P43119 whole entry): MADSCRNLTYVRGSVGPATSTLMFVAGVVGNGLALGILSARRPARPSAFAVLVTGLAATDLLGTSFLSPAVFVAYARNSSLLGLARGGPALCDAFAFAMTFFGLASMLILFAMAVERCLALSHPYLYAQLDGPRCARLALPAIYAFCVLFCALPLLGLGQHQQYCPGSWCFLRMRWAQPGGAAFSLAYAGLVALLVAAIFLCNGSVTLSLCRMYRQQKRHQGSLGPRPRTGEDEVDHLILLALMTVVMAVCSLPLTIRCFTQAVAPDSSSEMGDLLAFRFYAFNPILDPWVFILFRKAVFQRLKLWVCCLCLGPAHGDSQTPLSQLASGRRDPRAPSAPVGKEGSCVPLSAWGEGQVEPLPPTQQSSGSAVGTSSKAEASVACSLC
row,Structure (SMILES),pIC50
1,CCCCCC(O)/C=C/CCCc1cccc(OCC(=O)O)c1 (configuration not stated),4.64
2,CCCCCC(O)/C=C/CCC1CCCc2c(OCC(=O)O)cccc21 (configuration not stated),5.02
3,O=C(O)COc1cccc2c1CCC(C/C=C/CCc1ccccc1)C2 (configuration not stated),5.28
4,CCCCCC(O)/C=C/CC1CCc2c(cccc2OCC(=O)O)C1 (configuration not stated),5.11

# These reach a higher pIC50. Values come first.
row,pIC50,Structure (SMILES)
1,5.31,O=C(O)COc1cccc2c1CCC(C/C=C/C(O)Cc1ccccc1)C2 (configuration not stated)
2,5.41,O=C(O)COc1cccc(CCC/C=N/OC(c2ccccc2)c2ccccc2)c1
3,5.51,O=C(O)COc1cccc2c1CCC(C/C=C/CC(c1ccccc1)c1ccccc1)C2 (configuration not stated)
4,5.52,O=C(O)COc1cccc2c1CCC(C/C=C\CC(c1ccccc1)c1ccccc1)C2 (configuration not stated)
5,6.19,O=C(O)COc1cccc2c1CCC(C/C=N/OC(c1ccccc1)c1ccccc1)C2 (configuration not stated)
6,6.22,O=C(O)COc1cccc2c1CCCC2CC/C=N/OC(c1ccccc1)c1ccccc1 (configuration not stated)

# Species on record: Homo sapiens
# Assay: Evaluated for inhibition of 4 uM ADP-induced human platelet aggregation
# Format: functional, organism-based
row,pIC50,Structure (SMILES)
1,5.96,O=C(O)COc1cccc2c1CCC(C/C=N/OC(c1ccccc1)c1ccccc1)C2 (configuration not stated)
2,5.68,O=C(O)COc1cccc2c1CCCC2CC/C=N/OC(c1ccccc1)c1ccccc1 (configuration not stated)
